Measured values taken from patent US20060281807A1, “Quassinoid compositions for the treatment of cancer and other proliferative diseases” (Tapestry Pharmaceuticals, Inc., priority 2005, published 2006).
≈ marks a conversion by molar mass, not a printed value. Where “and” joins values, the source holds several entries; their conditions need not be identical. Identical values can stand only once. Like-named read-outs stand apart in the source and are kept apart here.

Columns and labels:
L1210 (murine leukemia) = assay: Disk diffusion assay, zone of inhibition, L1210; format: cell-based; conditions: 1 mg/mL
Experimental: (§1) A disk diffusion assay was performed to define the differential cell killing ability of 15-O-(3′-hydroxy-3′-isopropyl-4′-methylpentanoyl)bruceolide. Seven cell types were assayed: L1210 (ATCC CCL-219) (murine leukemia), CCRF-CEM (ATCC CCL-119) (human leukemia), Colon 38 (murine colon adenocarcinoma), HCT116 (ATCC CCL-247) (human colorectal carcinoma), H125 (human lung carcinoma). The murine and human granulocyte/macrophage progenitor cell line (CFU-GM), served as controls.
(§2) Colon 38 cells (about 1 gram) were cut into small fragments in 15 mL of Hank's Balanced Salt Solution (HBSS) over a 100-mesh sieve and gently forced through by the scissors with HBSS constantly perfusing the sieve. The resulting material was then drawn into and out of a 5 mL syringe without a needle to further disperse the cell clumps. The cell solution was diluted and plated in 0.3% agarose in DMEM plus 10% heat-inactivated Bovine Calf Serum (BCS). For plating of all of the cell types (except controls), the 60 mm plates were first prepared with a hard agar bottom layer (0.6% agar in RPMI-1640 plus 15% BCS).
(§3) A 15 μl sample of each compound was dropped onto a 6.5 mm disk (Baxter filter disks). The disks were allowed to dry overnight and then placed close to the edge of a petri dish. Depending upon the cell type, the dishes were incubated for 7 to 10 days, and examined by an inverted stereo-microscope (10×) for measurement of the zone of inhibition. The zone of inhibition was measured from the edge of the filter disk to the beginning of normal-sized colony formation. The diameter of the filter disk, 6.5 mm, was arbitrarily taken as a zone of 200 units. Compounds that were selective for killing solid tumors, as compared to leukemia or normal cells (“solid tumor selective”) were defined as those compounds which produced a difference in zones between solid tumor cells and either normal or leukemia cells of at least 250 units. The results of this analysis are set forth in Table 4, which illustrates the relative diameters of the zones of inhibition by various drugs on the growth of the respective cell types at various drug dilutions.

[1] = system: Colon 38 (murine colon adenocarcinoma); assay: Disk diffusion assay, zone of inhibition, Colon 38; zone differentials, potency and product; format: cell-based; set-up: key to C38ΔL1210 / C38ΔCFU: difference of zone of inhibition values, in zone units; conditions: for zone of inhibition, Colon 38: 1 mg/mL; for Sum: C38ΔL1210 plus C38ΔCFU; for C38ΔL1210: Colon38 vs L1210 leukemia; for Product: potency multiplied by zone differentials
Experimental: as §1, §2, §3
The degree of differential sensitivity of several inventive compounds was compared with respect to the Colon38 cell line, the L1210 cell line, and the control CFU-GM cell lines. The degree of differential sensitivity was estimated by calculating the difference between the zone of inhibition values, as determined in Example 6, for the solid tumor compared to either the leukemia (C38ΔL1210) or normal cell (C38ΔCFU).
The potency of each of several inventive compounds was determined by identifying the dilution required to yield an average zone of inhibition of 500 units for the Colon38 cell type. Then the potency and the zone differentials were multiplied to define a “product” (see Table 5), which can be used to rank the compounds tested for their potential for further development; the greater the product value the greater the probability of useful chemotherapeutic utility.

[2] = system: HCT116 (human colorectal carcinoma); assay: Disk diffusion assay, zone of inhibition, HCT116; format: cell-based; conditions: 1 mg/mL
Experimental: as §1, §2
(§4) HCT116 and H125 cells were maintained in cell culture, and were removed from culture by a trypsin-collagenase-DNAase cocktail. The plating efficiencies of each cell type was sufficiently high that 30,000 cells in 3 mL produced the desired number of colonies (i.e., over 10,000 per plate) in 60 mm plates. This soft agar top layer (0.3% with the serum and media as above) plus the titrated tumor cells were poured into the plates and allowed to solidify.
as §3

[3] = system: H125 (human lung carcinoma); assay: Disk diffusion assay, zone of inhibition, H125; format: cell-based; conditions: 1 mg/mL
Experimental: as §1, §2, §4, §3

[4] = system: CCRF-CEM (human leukemia); assay: Disk diffusion assay, zone of inhibition, CCRF-CEM; format: cell-based; conditions: 1 mg/mL
Experimental: as §1, §2, §3

murine CFU-GM = assay: Disk diffusion assay, zone of inhibition, murine CFU-GM; format: cell-based; conditions: 1 mg/mL
Experimental: as §1
For CFU-GM cells, the femoral marrow of BD2F1 mice was flushed with MEM alpha (2 mL per femur). The cells were passed through an 18 gauge needle twice and the monodispersed suspension was counted. A total of 1.5×10^6 cells were plated in 3 mL of 0.3% agar with the addition of 10% L cell conditioned media, which provided colony stimulating factor, in MEM-alpha plus 10% BCS. For human CFU-GM, the cells were obtained from Poietic Technologies, Inc. (Gaithersburg, Md.) and washed twice with PBS before being titered and added to the agar mixture. The same cell number, culture conditions, and conditioning factors used with respect to the murine CFU-GM cells were used with the human cells, except that the cultures were assessed after 10 days of incubation.
as §3

HCT-116 cells [5] = assay: HCT-116 cytotoxicity, viable cell count by trypan blue; format: cell-based, human; conditions: for IC90/IC50: HCT-116; for IC50 / IC90: HCT-116, 3 days with compound, viable cells, by interpolation
HCT-116 cells [6] = assay: Clonogenic assay, HCT-116; format: cell-based, human; conditions: colonies at 7 days
Experimental: A clonogenic assay was performed using HCT-116 cells. Specifically, HCT-116 cells were seeded at 200 to 20,000 cells in 60 mm dishes. […] At either 2 hours or 24 hours following drug administration, the drug-containing media was removed, and fresh media without drug was added. In addition, one group of cells was subjected to continuous drug exposure for the entire incubation period. The dishes were incubated for 7 days (at 37° C. and 5% CO2), media was removed, and the colonies were stained with methylene blue. Colonies containing 50 cells or more were counted. The results were normalized to an untreated control. Plating efficiency for the untreated cells was about 90%. Repeat experiments also were carried out to define the cell survival range between 1 (100%) and 10^−3 (0.1%) survival. A survival rate of 10^−1 was chosen as the minimal level that would be required in vivo to achieve therapeutic efficacy against HCT-116 cells in tumor-bearing mice. The clonogenic dose response to 15-O-(3′-hydroxy-3′-isopropyl-4′-methylpentanoyl)bruceolide is illustrated in FIG. 4. The clonogenic dose response to 15-(3-isopropyl-4-methyl-2-pentenoyl)-bruceolide is illustrated in FIG. 5.

[7] = Maximum tolerated dose in mice; conditions: intravenous, first stage, one mouse per dose
Experimental: Formulations containing 15-O-(3′-hydroxy-3′-isopropyl-4′-methylpentanoyl)bruceolide, 15-(3-isopropyl-4-methyl-2-pentenoyl)-bruceolide, and, for comparative purposes, bruceantin, or peninsularinone were prepared by solubilizing each compound in up to 100 mg/mL of ethanol. These solutions were diluted 1:1 with a stabilizer (Cremophor/propylene glycol). The solutions were then diluted in saline (1:10 minimum).
The maximum tolerated dose (MTD) was determined by a two-stage experiment. In the first stage, between 1 and 10 mg/mL of the formulation was prepared as described above. Next, 0.25 mL of the formulation was injected intravenously into one 20 gram mouse (0.75 mg/mouse). If the animal died within 30 days of injection, a series of subsequent 2-fold dilutions were administered to individual mice until an MTD was defined. […] The second stage of the study involved increasing the number of mice per dose to four, and retesting four dilutions that bracket the MTD from the individual mouse study. The four dilutions were the MTD, a dosage twice the MTD, a dosage ½ the MTD, and a dosage ¼ the MTD.

[8] = no dilution, 15 μl on disk, 6.5 mm = 200 units
[9] = difference between zone of inhibition values

Compound: CC1=CC(=O)[C@@H](O)[C@]2(C)[C@H]3[C@@]4(O)OC[C@]35[C@H]([C@@H](C)[C@H]4O)[C@@H](O)C(=O)O[C@@H]5C[C@@H]12 [Glaucarubolone, glaucarubolone]
- zone of inhibition, L1210 (L1210 (murine leukemia); dilution 1/100): 0 units
- zone of inhibition, L1210 (L1210 (murine leukemia); dilution 1/1000): 0 units
- zone of inhibition, L1210 (L1210 (murine leukemia); [8]): 400 units
- zone of inhibition, Colon 38 ([1]; dilution 1/10): >1000 units and 600 units
- zone of inhibition, Colon 38 ([1]; dilution 1/40): 400 units
- zone of inhibition, Colon 38 ([1]; dilution 1/100): 400 units
- zone of inhibition, Colon 38 ([1]; dilution 1/1000): 0 units
- zone of inhibition, Colon 38 [1, 8]: >1000 units
- Sum [1]: 1150 and 800
- C38ΔL1210 [1, 9]: 550 and 400
- C38ΔCFU ([1]; difference between zone of inhibition values, Colon38 vs normal cell CFU-GM): 600 and 400
- Product [1]: 4600 and 3600
- zone of inhibition, H-116 ([2]; dilution 1/10): 600 units
- zone of inhibition, H-116 ([2]; dilution 1/100): 0 units
- zone of inhibition, H-116 ([2]; dilution 1/1000): 0 units
- zone of inhibition, H-116 [2, 8]: >1000 units
- zone of inhibition, H-125 M ([3]; dilution 1/10): 700 units
- zone of inhibition, H-125 M ([3]; dilution 1/100): 0 units
- zone of inhibition, H-125 M ([3]; dilution 1/1000): 0 units
- zone of inhibition, H-125 M [3, 8]: >1000 units
- zone of inhibition, CEM ([4]; dilution 1/10): 600 units
- zone of inhibition, CEM ([4]; dilution 1/100): 0 units
- zone of inhibition, CEM ([4]; dilution 1/1000): 0 units
- zone of inhibition, CEM [4, 8]: 900 units
- zone of inhibition, murine CFU-GM (murine CFU-GM; dilution 1/10): 0 units
- zone of inhibition, murine CFU-GM (murine CFU-GM; dilution 1/40): 0 units
- zone of inhibition, murine CFU-GM (murine CFU-GM; dilution 1/100): 0 units
- zone of inhibition, murine CFU-GM (murine CFU-GM; dilution 1/1000): 0 units
- zone of inhibition, murine CFU-GM (murine CFU-GM; [8]): 50 units
- IC90/IC50 (HCT-116 cells [5]): 58
- IC50 (HCT-116 cells [5]; Homo sapiens, 72 h, read-out: IC50): 0.04 µg/mL (≈ 0.101 µM)
- IC90 (HCT-116 cells [5]; Homo sapiens, 72 h, read-out: IC90): 2.3 µg/mL (≈ 5.83 µM)
- Concentration Required for 10^−1 Survival Fraction (HCT-116 cells [6]; HCT-116, 2 Hour Exposure): >10 μg/mL
- Concentration Required for 10^−1 Survival Fraction (HCT-116 cells [6]; HCT-116, 24 Hour Exposure): 1 × 10^0 μg/mL
- Concentration Required for 10^−1 Survival Fraction (HCT-116 cells [6]; HCT-116, Continuous Exposure): 2 × 10^−2 μg/mL

Compound: CC[C@@](O)(CC(=O)O[C@@H]1C(=O)O[C@@H]2C[C@@H]3C(C)=CC(=O)[C@H](O)[C@]3(C)[C@H]3[C@]4(O)OC[C@]32[C@@H]1[C@@H](C)[C@H]4O)C(C)C [Peninsularinone, peninsularinone]
- zone of inhibition, L1210 (L1210 (murine leukemia); dilution 1/10): >1000 units
- zone of inhibition, L1210 (L1210 (murine leukemia); dilution 1/100): 700 units
- zone of inhibition, L1210 (L1210 (murine leukemia); dilution 1/1000): 300 units and 200 units
- zone of inhibition, L1210 (L1210 (murine leukemia); dilution 1/4000): 50 units
- zone of inhibition, L1210 (L1210 (murine leukemia); dilution 1/10000): 100 units
- zone of inhibition, L1210 (L1210 (murine leukemia); [8]): >1000 units
- zone of inhibition, Colon 38 ([1]; dilution 1/10): >1000 units
- zone of inhibition, Colon 38 ([1]; dilution 1/100): >1000 units
- zone of inhibition, Colon 38 ([1]; dilution 1/1000): 800 units and 550 units
- zone of inhibition, Colon 38 ([1]; dilution 1/4000): 250 units
- zone of inhibition, Colon 38 ([1]; dilution 1/10000): 200 units
- zone of inhibition, Colon 38 [1, 8]: >1000 units
- Sum [1]: 1100 and 550
- C38ΔL1210 [1, 9]: 450 and 250
- Product [1]: 6600 and 3575
- zone of inhibition, H-116 ([2]; dilution 1/10): >1000 units
- zone of inhibition, H-116 ([2]; dilution 1/100): 950 units
- zone of inhibition, H-116 ([2]; dilution 1/1000): 450 units
- zone of inhibition, H-116 [2, 8]: >1000 units
- zone of inhibition, H-125 M ([3]; dilution 1/10): >1000 units
- zone of inhibition, H-125 M ([3]; dilution 1/100): 1000 units
- zone of inhibition, H-125 M ([3]; dilution 1/1000): 400 units
- zone of inhibition, H-125 M [3, 8]: >1000 units
- zone of inhibition, CEM ([4]; dilution 1/10): >1000 units
- zone of inhibition, CEM ([4]; dilution 1/100): 800 units
- zone of inhibition, CEM ([4]; dilution 1/1000): 500 units
- zone of inhibition, CEM [4, 8]: >1000 units
- zone of inhibition, murine CFU-GM (murine CFU-GM; dilution 1/10): >1000 units
- zone of inhibition, murine CFU-GM (murine CFU-GM; dilution 1/100): 450 units
- zone of inhibition, murine CFU-GM (murine CFU-GM; dilution 1/4000): 0 units
- zone of inhibition, murine CFU-GM (murine CFU-GM; dilution 1/10000): 0 units
- zone of inhibition, murine CFU-GM (murine CFU-GM; [8]): >1000 units
- IC90/IC50 (HCT-116 cells [5]): 13
- IC50 (HCT-116 cells [5]): 0.0012 µg/mL (≈ 0.00224 µM)
- IC90 (HCT-116 cells [5]): 0.015 µg/mL (≈ 0.028 µM)
- Concentration Required for 10^−1 Survival Fraction (HCT-116 cells [6]; HCT-116, 2 Hour Exposure): >10 μg/mL
- Concentration Required for 10^−1 Survival Fraction (HCT-116 cells [6]; HCT-116, 24 Hour Exposure): 1 × 10^−2 μg/mL
- Concentration Required for 10^−1 Survival Fraction (HCT-116 cells [6]; HCT-116, Continuous Exposure): 1 × 10^−3 μg/mL
- maximum tolerated dose, Dose - 1 Mouse [7]: 0.01 mg/mouse and 0.45 mg/kg
